Values joined by “and” are separate entries in the source; they are usually repeats but may differ in a detail not shown here. Equal values may be shown once. Active and inactive are the calls of the source.
Experiments:
[1] = inhibitors of Vif binding to APOBEC3G peptide, primary screen, biochemical, TR-FRET, GST-Vif 1-94, biotin-A3G peptide, dose response retest (AID 1117319); format: functional;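 further: TR-FRET signal of purified GST-Vif binding a biotinylated A3G peptide; inhibitors lower the FRET signal by blocking Vif and A3G binding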
Insulin-degrading enzyme [2] = target: T1, Insulin-degrading enzyme (Homo sapiens, UniProt P14735); assay: activators of endogenous IDE in HEK cells, dose response, cell-based, fluorescence polarization (AID 588439); format: functional
T1 sequence (P14735 whole entry): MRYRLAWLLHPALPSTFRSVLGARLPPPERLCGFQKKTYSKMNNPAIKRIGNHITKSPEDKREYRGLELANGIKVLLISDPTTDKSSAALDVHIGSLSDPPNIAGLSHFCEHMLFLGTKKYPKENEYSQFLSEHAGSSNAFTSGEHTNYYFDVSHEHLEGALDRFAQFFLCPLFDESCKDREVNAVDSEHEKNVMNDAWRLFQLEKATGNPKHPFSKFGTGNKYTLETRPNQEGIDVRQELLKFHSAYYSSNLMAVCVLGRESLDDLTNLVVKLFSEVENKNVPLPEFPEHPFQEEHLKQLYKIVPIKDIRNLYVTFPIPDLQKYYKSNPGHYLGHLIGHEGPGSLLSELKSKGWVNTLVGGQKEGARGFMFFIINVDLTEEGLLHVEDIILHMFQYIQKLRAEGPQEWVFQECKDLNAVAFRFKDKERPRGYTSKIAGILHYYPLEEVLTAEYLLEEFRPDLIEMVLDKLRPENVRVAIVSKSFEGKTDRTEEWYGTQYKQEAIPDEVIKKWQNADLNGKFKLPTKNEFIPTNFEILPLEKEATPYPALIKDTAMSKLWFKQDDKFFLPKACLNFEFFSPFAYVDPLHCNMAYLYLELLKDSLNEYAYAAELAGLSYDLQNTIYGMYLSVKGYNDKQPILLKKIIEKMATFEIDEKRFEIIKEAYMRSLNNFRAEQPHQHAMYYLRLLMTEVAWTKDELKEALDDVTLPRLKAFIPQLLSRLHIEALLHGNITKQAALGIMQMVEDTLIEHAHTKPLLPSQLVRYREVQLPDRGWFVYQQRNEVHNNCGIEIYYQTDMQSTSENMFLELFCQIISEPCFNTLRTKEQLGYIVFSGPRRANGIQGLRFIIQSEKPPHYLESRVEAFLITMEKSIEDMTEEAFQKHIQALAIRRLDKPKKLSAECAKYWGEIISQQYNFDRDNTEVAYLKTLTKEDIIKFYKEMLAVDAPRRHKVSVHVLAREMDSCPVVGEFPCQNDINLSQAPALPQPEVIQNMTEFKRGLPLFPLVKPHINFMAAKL

HEK293 [3] = assay: HEK cell cytotoxicity by LDH release, dose response, cytotoxicity control for IDE activator project, fluorescence, HEK cells (AID 588440); format: functional, cell-based; details: Homo sapiens;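 further: cytotoxicity by LDH release measuring loss of membrane integrity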
HEK293 [4] = assay: optical interference in Abeta FP readout, dose response, artefact control for IDE activator project, biochemical, fluorescence polarization (AID 588442); format: functional, cell-based; details: Homo sapiens
Insulin-degrading enzyme [5] = target: T1, Insulin-degrading enzyme; assay: activators of recombinant IDE enzyme, dose response, counter-screen for IDE activator project, biochemical, fluorescence polarization (AID 588681)
Nonstructural protein 1 = Nonstructural protein 1 (Influenza A virus, UniProt Q194T2); format: functional, Influenza A virus (A/California/07/2009(H1N1))
[6] = target: Ras and Rab interactor 1/Tyrosine-protein kinase ABL1 (Homo sapiens, UniProt P00519+Q13671); format: functional;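 further: biochemical TR-FRET dose-response test measuring inhibition of binding between Rin1 and Abl proteins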
[7] = target: Glutathione-S-transferase (Schistosoma japonicum, UniProt Q26513); assay: biotin-GST/anti-GST TR-FRET signal inhibitors, dose response, artefact control for Vif-APOBEC3G degradation inhibitor project, biochemical (AID 1117362); format: functional
[8] = ZM109 Env clade C HIV-1 fusion inhibitors, dose response, HeLa effector, CEM target cells, luciferase, cherry-pick (AID 652058); format: functional, cell-based
[9] = HIV Env cell-cell fusion inhibitors, dose response, HIV entry, plate reader, dry powder (AID 687023); format: functional, cell-based
[10] = inhibitors of HIV Env-driven cell fusion, dose response, cherry-pick (AID 652057); format: functional, cell-based
[11] = T. cruzi intracellular amastigote growth inhibition, dose response, imaging, CA-I/72 strain, bovine embryo skeletal muscle, dry powder (AID 651885); format: functional, cell-based
[12] = growth inhibition of intracellular T. cruzi, dose response, cell-based, plate reader, dry powder samples (AID 651845); format: functional
[13] = T. cruzi growth inhibition in host cells, dose response, cell-based, plate reader, dry powder, set 2 (AID 652275); format: functional
Transthyretin = Transthyretin (Homo sapiens, UniProt P02766); assay: Luminescence-based cell-based high throughput dose response assay to identify activators of Transthyretin (TTR) transcription.; format: functional
[14] = A2780 ovarian cancer cell cytotoxicity, dose response, cytotoxicity control, plate reader, dry powder samples (AID 743046); format: functional, cell-based
Paired box protein Pax-8 = Paired box protein Pax-8 (Homo sapiens, UniProt Q06710); assay: inhibitors of PAX8-driven TPO luciferase reporter, dose response, RMG-I cells, cherry-pick (AID 687027); format: functional, cell-based;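 further: luciferase reporter driven by Pax8 target thyroperoxidase promoter measured by SteadyGlo luminescence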
[15] = cytotoxicity in OVCAR8 ovarian cancer cells, dose response, PAX8 project, cell-based, plate reader, dry powder samples (AID 743197); format: functional; details: OVCAR-8

Ras and Rab interactor 1/Tyrosine-protein kinase ABL1, sequence (P00519 whole entry): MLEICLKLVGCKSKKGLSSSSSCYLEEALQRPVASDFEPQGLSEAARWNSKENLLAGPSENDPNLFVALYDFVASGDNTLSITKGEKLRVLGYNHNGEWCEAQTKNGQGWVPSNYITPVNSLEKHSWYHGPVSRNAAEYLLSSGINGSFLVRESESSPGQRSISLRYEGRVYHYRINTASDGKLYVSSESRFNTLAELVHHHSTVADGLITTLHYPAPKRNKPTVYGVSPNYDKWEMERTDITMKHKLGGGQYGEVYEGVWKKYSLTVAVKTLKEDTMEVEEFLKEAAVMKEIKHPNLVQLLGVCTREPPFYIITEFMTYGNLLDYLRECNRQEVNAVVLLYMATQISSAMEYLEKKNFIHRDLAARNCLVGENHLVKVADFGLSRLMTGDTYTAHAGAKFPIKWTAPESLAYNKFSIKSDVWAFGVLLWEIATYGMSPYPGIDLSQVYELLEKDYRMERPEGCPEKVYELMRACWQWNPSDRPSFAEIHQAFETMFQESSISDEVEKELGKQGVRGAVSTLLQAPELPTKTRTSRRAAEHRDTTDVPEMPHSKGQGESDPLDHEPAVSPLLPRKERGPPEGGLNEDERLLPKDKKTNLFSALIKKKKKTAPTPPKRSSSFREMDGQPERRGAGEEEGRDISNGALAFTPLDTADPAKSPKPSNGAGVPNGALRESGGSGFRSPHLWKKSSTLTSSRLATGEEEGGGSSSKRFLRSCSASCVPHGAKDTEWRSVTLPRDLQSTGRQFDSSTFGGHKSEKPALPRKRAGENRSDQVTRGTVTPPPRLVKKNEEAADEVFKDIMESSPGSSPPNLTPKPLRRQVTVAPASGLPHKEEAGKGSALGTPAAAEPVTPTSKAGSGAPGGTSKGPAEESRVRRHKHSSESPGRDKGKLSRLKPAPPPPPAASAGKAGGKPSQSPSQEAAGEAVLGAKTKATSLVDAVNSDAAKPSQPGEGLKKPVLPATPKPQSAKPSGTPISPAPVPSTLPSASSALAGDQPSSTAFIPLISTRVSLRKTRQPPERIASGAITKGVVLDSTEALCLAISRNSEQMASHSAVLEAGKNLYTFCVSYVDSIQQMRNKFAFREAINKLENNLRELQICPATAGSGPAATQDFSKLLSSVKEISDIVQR
Ras and Rab interactor 1/Tyrosine-protein kinase ABL1, sequence (Q13671 whole entry): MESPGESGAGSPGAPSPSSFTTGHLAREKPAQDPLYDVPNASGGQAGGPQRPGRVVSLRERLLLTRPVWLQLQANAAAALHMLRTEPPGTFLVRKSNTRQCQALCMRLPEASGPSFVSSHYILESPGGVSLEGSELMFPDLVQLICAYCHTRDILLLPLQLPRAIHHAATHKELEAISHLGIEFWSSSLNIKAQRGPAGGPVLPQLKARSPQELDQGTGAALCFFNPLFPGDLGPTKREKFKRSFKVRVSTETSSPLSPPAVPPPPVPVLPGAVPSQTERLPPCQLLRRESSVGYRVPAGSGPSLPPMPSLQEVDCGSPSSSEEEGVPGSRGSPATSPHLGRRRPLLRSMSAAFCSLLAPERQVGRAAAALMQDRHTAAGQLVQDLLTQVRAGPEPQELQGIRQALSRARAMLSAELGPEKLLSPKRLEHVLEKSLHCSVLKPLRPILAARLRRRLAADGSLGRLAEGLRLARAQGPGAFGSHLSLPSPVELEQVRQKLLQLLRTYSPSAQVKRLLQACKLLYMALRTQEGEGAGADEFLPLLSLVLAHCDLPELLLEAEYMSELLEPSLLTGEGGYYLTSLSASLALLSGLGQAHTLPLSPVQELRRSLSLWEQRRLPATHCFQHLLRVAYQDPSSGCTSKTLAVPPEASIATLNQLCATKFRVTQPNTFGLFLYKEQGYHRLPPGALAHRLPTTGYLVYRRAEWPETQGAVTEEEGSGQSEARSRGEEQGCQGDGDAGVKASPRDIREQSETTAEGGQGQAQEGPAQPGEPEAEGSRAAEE
Nonstructural protein 1, sequence (Q194T2 whole entry): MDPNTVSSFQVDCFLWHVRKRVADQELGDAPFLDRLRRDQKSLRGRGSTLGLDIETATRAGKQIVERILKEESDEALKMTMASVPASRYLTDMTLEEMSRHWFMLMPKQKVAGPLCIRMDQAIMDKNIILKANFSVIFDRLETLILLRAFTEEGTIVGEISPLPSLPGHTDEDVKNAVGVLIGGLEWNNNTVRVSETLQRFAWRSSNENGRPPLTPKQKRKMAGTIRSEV
Paired box protein Pax-8, sequence (Q06710 whole entry): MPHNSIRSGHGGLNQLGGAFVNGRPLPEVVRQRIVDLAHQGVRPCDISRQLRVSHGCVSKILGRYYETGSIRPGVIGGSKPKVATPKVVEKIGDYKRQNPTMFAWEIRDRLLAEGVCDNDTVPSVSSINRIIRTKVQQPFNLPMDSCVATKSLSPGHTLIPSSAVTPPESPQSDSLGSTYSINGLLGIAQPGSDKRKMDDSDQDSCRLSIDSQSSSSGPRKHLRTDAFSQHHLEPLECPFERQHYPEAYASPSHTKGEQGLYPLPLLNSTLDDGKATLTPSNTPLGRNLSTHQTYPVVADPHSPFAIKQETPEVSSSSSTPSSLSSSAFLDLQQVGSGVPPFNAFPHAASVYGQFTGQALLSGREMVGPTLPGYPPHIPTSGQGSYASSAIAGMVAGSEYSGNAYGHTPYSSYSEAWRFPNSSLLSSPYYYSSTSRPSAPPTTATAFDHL
Glutathione-S-transferase, sequence (Q26513 whole entry, the tested form may be a part): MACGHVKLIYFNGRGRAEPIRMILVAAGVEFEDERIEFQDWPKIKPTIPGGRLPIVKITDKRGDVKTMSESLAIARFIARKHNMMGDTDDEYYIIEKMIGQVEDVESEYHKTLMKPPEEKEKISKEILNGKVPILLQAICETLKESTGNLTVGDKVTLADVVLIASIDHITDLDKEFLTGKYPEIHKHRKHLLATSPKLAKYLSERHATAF

For CC(C)(C)CN1CCNC(=O)C1CC(=O)NCCc1ccccc1C(F)(F)F (stereo not drawn), the IC50 [1] was > 100 µM (active).
In the case of O=C(O)CCCC[C@@H]1SC[C@@H]2NC(=O)N[C@@H]21 [BIOTIN], the EC50 (Insulin-degrading enzyme [2]) is reported as 2.37 µM (active), the IC50 (HEK293 [3]) is reported as > 89.3 µM (inactive) and the EC50 (HEK293 [4]) is reported as 2.06 µM (active). For the same compound, the EC50 (Insulin-degrading enzyme [5]) was 2.53 µM (active), the IC50 (Nonstructural protein 1) was < 0.2 µM (active) and the IC50 [6] was > 3.73 nM (active) and 529 nM (active). The IC50 [7] was 0.85 µM (active).
With Cc1noc(C)c1S(=O)(=O)Nc1cccc2c1O[C@H](CN(C)Cc1ccc(C(F)(F)F)cc1)[C@H](C)CN([C@H](C)CO)C2=O the AC50 [8] was 0.935 µM (active), the AC50 [9] was 2.42 µM (active) and the AC50 [10] was 0.731 µM (active).
In the case of CC(C)N1C[C@@H](C)[C@H](CN(C)Cc2ccc(Oc3ccccc3)cc2)Oc2c(cccc2N(C)C(=O)c2ccncc2)C1=O, the IC50 [11] is reported as 10 µM (inconclusive), the AC50 [12] is reported as 0.262 µM (active) and the AC50 [13] is reported as 0.262 µM (active).
In the case of Cc1ccc([C@H]2C[C@@H](O)[C@H](n3cc(-c4ccc(F)cc4)nn3)CN2C(=O)c2cccs2)cc1, the EC50 (Transthyretin) is reported as > 167 µM (inactive).
With C[C@H](CO)N1C[C@H](C)[C@@H](CN(C)Cc2ccc(Cl)c(Cl)c2)OCCCC[C@H](C)Oc2ccc(NS(=O)(=O)c3ccc(Cl)cc3)cc2C1=O the AC50 [14] was 4.46 µM (active), the AC50 (Paired box protein Pax-8) was 11.5 µM (active) and the AC50 [15] was > 70 µM (inactive).
